Assays:
gumbo plants [1] = assay: Example 3: herbicide-induced plant injury or death from carrier hydrogel precursor mixtures applied to plants, visual rating; format: in vivo; settings: 14 days after spraying; glyphosate about 2.34% v/v, 10 gallons spray solution per acre; greenhouse; 100% = total death
Method: (§1) Release of an herbicide from loaded hydrogels was indirectly studied by examining plant injury or death. Hydrogel precursor mixtures were prepared according to the method 200 illustrated in FIG. 2. The precursor mixture was prepared at a lactose to methacrylic anhydride ratio of 1:0.5.
Glyphosate (as Touchdown HiTech®, Syngenta) alone (control group) or glyphosate plus hydrogel precursor mixture (test groups) was added to water to form a spray solution. The amount of glyphosate in a spray solution was approximately the same (i.e., about 2.34% v/v) for each control and test group. Test groups also included hydrogel precursor mixture at 5% v/v, 10% v/v, 20% v/v, 25% v/v, or 50% v/v of spray solution. Each group included five gumbo plants in a greenhouse. Control or test groups were sprayed at 10 gallons of spray solution per acre. In the test groups, the hydrogel precursor mixtures plus glyphosate were allowed to crosslink in ambient conditions after application to the plants.
Plant injury or death, from direct glyphosate application (control) or release of glyphosate from carrier hydrogels (tests), was measured after 14 days by a visual rating system. Results are presented in FIG. 5 as plant injury or death as a percentage, where “100% control” represents total death of a plant. […]

gumbo plants [2] = assay: Example 4: herbicide-induced plant injury or death from precursor mixtures of different lactose to methacrylic anhydride ratios, visual rating; format: in vivo; settings: 14 days after spraying; glyphosate about 2.34% v/v, 10 gallons spray solution per acre; greenhouse; 100% = total death
Method: as §1, with “1:0.5, 1:0.25, or 1:0.1 (test groups).” for “1:0.5.”
Glyphosate (as Touchdown HiTech®, Syngenta) alone (control group) or glyphosate plus hydrogel precursor mixture (test groups) was added to water to form a spray solution. The amount of glyphosate in spray solution was approximately the same (i.e., about 2.34% v/v) for each control and test group. Test groups also included one of the hydrogel precursor mixtures at 5% v/v. Each group included five gumbo plants in a greenhouse. Control or test groups were sprayed at 10 gallons of spray solution per acre. In the test groups, the hydrogel precursor mixtures plus glyphosate were allowed to crosslink in ambient conditions after application to the plants.
Plant injury or death, from direct glyphosate application (control) or release of glyphosate from carrier hydrogels (tests), was measured after 14 days by a visual rating system. Results are presented in FIG. 5 as plant injury or death as a percentage, where “100% control” represents total death of a plant. The same letter attributed to more than one group indicates no statistically significant difference between those groups. […]

## O=C(O)CNCP(=O)(O)O [Glyphosate, N-(phosphonomethyl)glycine]
Gumbo plants [1]
  Plant injury or death (average damage on plants): 85%
Gumbo plants [2]
  Plant injury or death (average damage on plants): 55%

— patent publication US12642269B2, “Hydrogels as carriers of active ingredients and methods of producing the same” (WinField Solutions, LLC, priority 2018, dated 2026)
